Reference: US6689762B1, “Composition and methods for treatment of HIV infection” (Enzon Pharmaceuticals, Inc., priority 1998, dated 2004)
Several values for one entry are separate records, joined by “and”; a condition that tells them apart may be missing. Equal values may be shown once.

B1: PEG-ASNase: asparaginase conjugated with polyethylene glycol (PEG); sold under the name ONCASPAR by Rhône-Poulenc Rorer (conjugate, UniProt P00805 23-348, looked up)
L-asparaginase 2: LPNITILATGGTIAGGGDSATKSNYTVGKVGVENLVNAVPQLKDIANVKGEQVVNIGSQDMNDNVWLTLAKKINTDCDKTDGFVITHGTDTMEETAYFLDLTVKCDKPVVMVGAMRPSTSMSADGPFNLYNAVVTAADKASANRGVLVVMNDTVLDGRDVTKTNTTDVATFKSVNYGPLGYIHNGKIDYQRTPARKHTSDTPFDVSKLNELPKVGIVYNYANASDLPAKALVDAGYDGIVSAGVGNGNLYKSVFDTLATAAKTGTAVVRSSRVPTGATTQDAEVDDAKYGFVASGTLNPQKARVLLQLALTQTKDPQQIQQIFNQY
modifications: PEG conjugate (pegaspargase)
notes: asparaginase conjugated with polyethylene glycol (PEG); sold under the name ONCASPAR by Rhône-Poulenc Rorer

Experiments:
[1] = tested on: HIV-RT levels of HIV-1 infected CEM/0 cell pellets; assay: HIV-RT ELISA (Reverse Transcriptase Assay, non-radioactive) in cell pellets of HIV-1 infected CEM/0 T-cells; type: cell-based; design: % of control (of RANGE) / % of control (of MEAN): concentration or dose not given beside the values; conditions: for MEAN (HIV-RT): Table 5, three wells; for % of control (of RANGE): * single point determination; for MEAN X3 (HIV-RT): Table 9
Source text: The following is a general procedure for the HIV-reverse transcriptase assay:
The cell line used for these studies is CCRF/CEM/O, a human T-leukemic cell line. PEG-ASNase (ONCASPAR) is provided by Rhone-Poulenc Rorer. Saquinavir is commercially available. RPMI-1640 media (Irvine Scientific, Irvine, Calif.) is enriched with 10% Fetal Calf Serum (Gemini Biosource, Calabasas, Calif.), 5% 1M Hepes Buffer solution and 5% Non-essential amino acids (Irvine Scientific, Irvine, Calif.). The drug concentrations used are as follows:
Briefly, 2×10^6 cells/ml are stimulated with PHA+ media for 48 hours at 37° C. with 5% CO2. Also, the same number of cells are incubated in PHA(phytohemagglutinin) free media for 48 hours to serve as the negative control. At this point the cells are inoculated with the HIV-1 virus as per standard protocol. PEG-ASNase and/or Saquinavir are added to the cells in the appropriate concentrations (see above). The control cells are resuspended in drug-free media for the duration of the exposure which lasted seven days. At day five, two 1 ml aliquots of media are removed from the flasks and stored under liquid nitrogen. At day seven, two more 1 ml aliquots of media are removed from the flasks and stored under liquid nitrogen. In addition, the remaining cells are pelleted and stored at −80° C.
The samples produced from this experiment are itemized and then assayed for HIV-RT using the Reverse Transcriptase Assay, non-radioactive (Boehringer Mannheim). The standard curve is determined and the HIV-RT levels for the experimental samples are calculated.
This experiment is carried out using a similar procedure, and the same concentrations of materials as in Experiment 7, however the exposure of the HIV virus in T-cell pellets to PEG-ASNase and Saquinavir alone, and in combination is measured. It should be noted that “PEG” in Table 2a represents PEG-ASNase. […]

[2] = tested on: HIV-RNA in supernatant of HIV-1 infected CEM/0 T-cells; assay: HIV-1 quantitative RNA assay (HIV-1 Monitor) in supernatants of CEM/0 T-cells; type: cell-based; design: inhibition of HIV-RNA in the supernatants in comparison to untreated control / % OF CONTROL / % control: concentration or dose not given beside the values; conditions: for inhibition of HIV-RNA in the supernatants in comparison to untreated control: Experiment 6 text; for % control / MEAN N: Table 3; for Log 10 N: Table 3, per flask; for N*: day 7 post Rx, PEG 0.400 IU/ml, SAQ 25 uM, AZT 1 uM, combinations PEG 0.233 IU/ml + SAQ 14.52 uM
Source text: It should be noted that “PEG” in Table 3 represents PEG-ASNase.
Materials and Methods: The cell line used for these studies is CEM/0, a human T-cell leukemic cell line. PEG-ASNase (ONCASPAR) is provided by Rhone-Poulenc Rorer. Saquinavin is commercially available. AZT is purchased from Sigma. MISID, a ribonucleotide reductase inhibitor, is as described in Nandy P, Lien E J, Avramis V I, Med. Chem. Res. 1995, 5:664-679. RPMI-1640 media (Irvine Scientific, Irvine, Calif.), is enriched with 10% Fetal Calf Serum (Gemini Biosource, Calabasas, Calif.), 5% 1M Hepes Buffer solution and 5% Non-essential amino acids (Irvine Scientific, Irvine, Calif.). The drug concentrations used are as follows:
Briefly, 3×10^6 cells/ml are stimulated with PHA+ media for 48 hours at 37° C. with 5% CO2. Also, the same number of cells are incubated in PHA free media for 48 hours to serve as the negative control. At this point the cells are inoculated with the HIV-1 virus as per standard protocol. Note that in this experiment, the HIV containing supernatant from the PHA-stimulated healthy human peripheral mononuclear cells (PBMC) is not removed from the PHA-stimulated CEM/0 cell culture. […] These virus particles are continuously released by already infected T-cells and/or lymph nodes of patients.
The experimental drugs are added to the cells in the appropriate concentrations at the same time as viral inoculation or 90 minutes after the viral incubation, a time sufficient for the T-cells to be infected and start producing new HIV-1 virus particles. The control cells are resuspended in drug-free media for the duration of the exposure which lasted seven days. Aliquots of media from the control flasks only are obtained on day 5 post Rx. At day seven, three 1 ml each, aliquots of media are removed from the flasks and stored under liquid nitrogen. In addition, the remaining cells are split into three and then pelleted and stored at −80° C. Supernatant specimens are obtained form these T-cell cultures and are frozen at −80° C. The samples produced from this experiment are itemized. The cell pellets of the cellular cultures (see Experiment 9) from the 90 minute viral incubation flasks are assayed for HIV-RNA quantitative assay using a kit for the assay, non-radioactive. […] The standard curve is determined and the HIV-RNA levels for the experimental samples are calculated and reported previously.
This experiment is carried out using a similar procedure, and the same concentrations of materials as in Experiment 10, however the exposure of HIV-RNA in T-cell supernatants to a combination of PEG-ASNase, Saquinavir, AZT and 3TC is measured. It should be noted that “PEG” in Table 10 represents PEG-ASNase.

[3] = Experiment 7, monotherapy at IC50 concentrations or combination
[4] = Experiment 10 (3TC) text, cell pellets
[5] = Table 9, per well, listed as SAQ
[6] = Table 2a, per flask, listed as PEG
[7] = Table 9, per well, listed as PEG

Molecule | inhibition of HIV-RT [1, 3] [%] | inhibition of HIV-RT [1, 4] | group mean (X2/X3) +/- S.D. ([1]; Table 2a) | % of control (of MEAN) ([1]; Table 5) [%] | MEAN (HIV-RT) [1] [pg/well] | % of control (of RANGE) ([1]; Table 5) [%] | MEAN X3 (HIV-RT) [1] [ng/well] | inhibition of HIV-RNA in the supernatants in comparison to untreated control [2] | % control [2] [%] | MEAN N [2] [copies/mL] | MEAN ([2]; Table 8) [copies/mL] | % OF CONTROL ([2]; Table 8 and Experiment 10) [%] | MEAN ([2]; Table 10) [copies/mL] | % OF CONTROL ([2]; Table 10 and Experiment 11) | other results
CC(C)(C)NC(=O)[C@@H]1C[C@@H]2CCCC[C@@H]2CN1C[C@@H](O)[C@H](Cc1ccccc1)NC(=O)[C@H](CC(N)=O)NC(=O)c1ccc2ccccc2n1 [Saquinavir] | 83 | some inhibition | X2 = 31.10 +/− 4.67 pg/well, % CV = 15.01% | 12.7 | 0.016 | 12.7 | 0.022 | ~68% | 32.38 | 42100 | 124762 | 63.82 | 2438 | approximately 55% | inhibition of HIV-RT in comparison with the control ([1]; Experiment 5a text, combination at synergistically reduced concentrations): approximately 15%; HIV-RT [1, 5]: 0.021 ng/well and 0.023 ng/well; HIV-RT (negative values set to 0) [1, 5]: 0.021 ng/well and 0.023 ng/well; Log 10 N ([2]; listed as SAQ): 4.61 and 4.60 and 4.66; N* ([2]; Table 8, per specimen, 90 min viral inoculation, MISID 0.685 uM, listed as SAQ): 122515 copies/mL and 128455 copies/mL and 123316 copies/mL; N* ([2]; Table 10, per specimen, 3TC 1 uM, listed as SAQ): 2816 copies/mL and 2375 copies/mL and 2122 copies/mL; % OF CONTROL ([2]; Table 10 and Experiment 11, listed as SAQ): 55.08%
Cc1cn([C@H]2C[C@H](N=[N+]=[N-])[C@@H](CO)O2)c(=O)[nH]c1=O [AZT, zidovudine] | – | – | – | 0 | 0 | 0 | 0 | – | – | – | 120691 | 61.74 | 1437 | 32.48% | inhibition of HIV-RT ([1]; Experiment 7, cell pellets): most dramatic inhibition; HIV-RT ([1]; Table 5, per well, negative values set to 0): 0 pg/well; HIV-RT (negative values set to 0) ([1]; Table 9, per well): 0 ng/well; N* ([2]; Table 8, per specimen, 90 min viral inoculation, MISID 0.685 uM): 120981 copies/mL and 121288 copies/mL and 119805 copies/mL; N* ([2]; Table 10, per specimen, 3TC 1 uM): 1203 copies/mL and 1409 copies/mL and 1700 copies/mL
B1 | 54 | some inhibition | X3 = 68.43 +/− 11.26 pg/well, % CV = 16.45% | 46.03 | 0.058 | 67.46 | 0.159 | approximately 60% | 40.78 | 53020 | 143761 | 73.54 | 3233 | ~73% | inhibition of intracellular HIV-RT as compared to untreated control ([1]; Example 1, day 7 pellets, PEG-ASNase 0.4 IU/ml, Saquinavir 25 μM, combination 0.233 IU/ml + 14.5 μM): about 30%; effect in inhibiting HIV-RT ([1]; Experiment 5a, day 7): moderate effect; % cont. [1, 6]: 79.9% and 68.0% and 57.4%; HIV-RT [1, 6]: 0.330 pg/well and 0.281 pg/well and 0.237 pg/well; RANGE (HIV-RT, low or zero wells left out) ([1]; Table 5): 0.085 pg/well; HIV-RT [1, 7]: 0.201 ng/well and 0.142 ng/well and 0.133 ng/well; HIV-RT (negative values set to 0) [1, 7]: 0.201 ng/well and 0.142 ng/well and 0.133 ng/well; Log 10 N ([2]; listed as PEG): 4.71 and 4.72 and 4.73; N* ([2]; Table 8, per specimen, 90 min viral inoculation, MISID 0.685 uM, listed as PEG): 147041 copies/mL and 142575 copies/mL and 141667 copies/mL; N* ([2]; Table 10, per specimen, 3TC 1 uM, listed as PEG): 3132 copies/mL and 3048 copies/mL and 3520 copies/mL; % OF CONTROL ([2]; Table 10 and Experiment 11, listed as PEG): 73.06%
